Results published in patent publication US9328138B2 (priority 2011, dated 2016).

What was measured:
[1] = molecular target: HCV NS3 protease genotype 3a (3A-1) (Hepatitis C virus genotype 3a, UniProt Q81258); experiment: HCV NS3 protease time-resolved fluorescence (TRF) assay, genotype 3a; format: biochemical; settings: Ki 3a
In short: (§1)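 NS3/NS4A protease was pre-incubated 10 min with inhibitor in 50 mM HEPES pH 7.5, 150 mM NaCl, 15% glycerol, 0.15% Triton X-100, 10 mM DTT, 0.1% PEG 8000. TRF peptide substrate (25 nM final) was hydrolysed for 6 h at room temperature. IC50 came from four-parameter fits.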

[2] = molecular target: T1, HCV genotype 1b (BK) NS3 modified enzyme with a R155K mutation (Hepatitis C virus genotype 1b, UniProt P26663, R1181K); experiment: HCV NS3 protease time-resolved fluorescence (TRF) assay, genotype 1b R155K; format: biochemical; settings: Ki 1b R155K
T1 construct: HCV genotype 1b (BK) NS3 modified enzyme
In short: as §1

[3] = genotype 1b (BK) NS3 R155K, single value

C=C[C@@H]1C[C@]1(NC(=O)[C@@H]1C[C@@H]2CN1C(=O)[C@H](C(C)(C)C)NC(=O)O[C@@H]1C[C@H]1CCCCCc1c(nc3ccccc3c1OC[C@H]1CNCCO1)O2)C(=O)NS(=O)(=O)C1(C)CC1 [Example 221, (1aR,5S,8S,10R,22aR)-5-tert-butyl-N-[(1R,2S)-2-ethenyl-1-{[(1-methylcyclopropyl)sulfonyl]carbamoyl}cyclopropyl]-17-[(2R)-morpholin-2-ylmethoxy]-3,6-dioxo-1,1a,3,4,5,6,9,10,18,19,20,21,22,22a-tetradecahydro-8H-7,10-methanocyclopropa[18,19][1,10,3,6]dioxadiazacyclononadecino[11,12-b]quinoline-8-carboxamide]
Ki [1]: 1.4 nM | Ki [2, 3]: 0.05 nM

C=C[C@@H]1C[C@]1(NC(=O)[C@@H]1C[C@@H]2CN1C(=O)[C@H](C(C)(C)C)NC(=O)O[C@@H]1C[C@H]1CCCCCc1c(nc3ccccc3c1OC1CC3CCC(C1)N3CC(F)(F)F)O2)C(=O)NS(=O)(=O)C1(C)CC1 (stereo partly drawn) [Example 275, potassium {[(1R,2S)-1-({[(1aR,5S,8S,10R,22aR)-5-tert-butyl-3,6-dioxo-17-{[8-(2,2,2-trifluoroethyl)-8-azabicyclo[3.2.1]oct-3-yl]oxy}-1,1a,3,4,5,6,9,10,18,19,20,21,22,22a-tetradecahydro-8H-7,10-methanocyclopropa[18,19][1,10,3,6]dioxadiazacyclononadecino[11,12-b]quinolin-8-yl]carbonyl}amino)-2-ethenylcyclopropyl]carbonyl}[(1-methylcyclopropyl)sulfonyl]azanide]
Ki [1]: 16 nM | Ki ([2]; first of two values printed in the cell (not explained)): 0.11 nM | Ki ([2]; second of two values printed in the cell (not explained)): 1.15 nM

C=C[C@@H]1C[C@]1(NC(=O)[C@@H]1C[C@@H]2CN1C(=O)[C@H](C1CCCC1)NC(=O)O[C@@]1(C)C[C@@H]1CC/C=C/Cc1c(nc3ccccc3c1O)O2)C(=O)NS(=O)(=O)C1CC1 [Example 20, (1aS,5S,8S,10R,19E,22aS)-5-cyclopentyl-N-{(1R,2S)-1-[(cyclopropylsulfonyl)carbamoyl]-2-ethenylcyclopropyl}-17-hydroxy-1a-methyl-3,6-dioxo-1,1a,3,4,5,6,9,10,18,21,22,22a-dodecahydro-8H-7,10-methanocyclopropa[18,19][1,10,3,6]dioxadiazacyclononadecino[11,12-b]quinoline-8-carboxamide]
Ki [1]: 22 nM | Ki [2, 3]: 0.55 nM

CN1CCN(CCCOc2c3c(nc4ccccc24)O[C@@H]2C[C@H]4C(=O)N[C@]5(C(=O)NS(=O)(=O)C6(C)CC6)C[C@H]5/C=C\CCCCC[C@H](NC(=O)O[C@@H]5C[C@H]5CCC/C=C/3)C(=O)N4C2)CC1 [Example 304, (1aR,5S,11Z,12aS,13aR,16S,19R,27E, 31aR)-N-[(1-methylcyclopropyl)sulfonyl]-26-[3-(4-methylpiperazin-1-yl)propoxy]-3,15,33-trioxo-1,1a,3,4,5,6,7,8,9,10,12a,13,15,16,18, 19,29,30,31,31a-icosahydro-5,17:16,19-dimethanodicyclopropa[12,13:28,29] [1,20,3,14,17] dioxatriazacyclononacosino[21,22-b]quinoline-13a(14H)-carboxamide]
Ki [1]: 1.2 nM | Ki [2, 3]: 0.078 nM

C=C[C@@H]1C[C@]1(NC(=O)[C@@H]1C[C@@H]2CN1C(=O)[C@H](C(C)(C)C)NC(=O)O[C@@H]1C[C@H]1CCCCCc1c(nc3ccccc3c1OCCNC(C)(C)C)O2)C(=O)NS(=O)(=O)C1(C)CC1 [Example 177, (1aR,5S,8S,10R,22aR)-5-tert-butyl-17-[2-(tert-butylamino)ethoxy]-N-[(1R,2S)-2-ethenyl-1-{[(1-methylcyclopropyl)sulfonyl]carbamoyl}cyclopropyl]-3,6-dioxo-1,1a,3,4,5,6,9,10, 18,19,20,21,22,22a-tetradeca hydro-8H-7,10-methanocyclopropa[18,19][1,10,3,6] dioxadiazacyclononadecino[11,12-b] quinoline-8-carboxamide]
Ki [1]: 1.1 nM | Ki [2, 3]: 0.14 nM

C=C[C@@H]1C[C@]1(NC(=O)[C@@H]1C[C@@H]2CN1C(=O)[C@H](C(C)(C)C)NC(=O)O[C@@H]1C[C@H]1CCCCCc1c(nc3ccccc3c1OCCCNC(C)C)O2)C(=O)NS(=O)(=O)C1(C)CC1 [Example 185, (1aR,5S,8S,10R,22aR)-5-tert-butyl-N-[(1R,2S)-2-ethenyl-1-{[(1-methylcyclopropyl)sulfonyl]carbamoyl}cyclopropyl]-3,6-dioxo-17-[3-(propan-2-ylamino)propoxy]-1,1a,3,4,5,6,9,10,18,19,20,21,22,22a-tetradecahydro-8H-7,10-methanocyclopropa[18,19][1,10,3,6] dioxadiazacyclononadecino[11,12-b] quinoline-8-carboxamide]
Ki [1]: 0.36 nM | Ki [2, 3]: 0.032 nM

C=C[C@@H]1C[C@]1(NC(=O)[C@@H]1C[C@@H]2CN1C(=O)[C@H](C(C)(C)C)NC(=O)O[C@@H]1C[C@H]1CCCCCc1c(nc3cc(C(C)C)ccc3c1OCCN1CCOCC1)O2)C(=O)NS(=O)(=O)C1(C)CC1 [Example 132, (1aR,5S,8S,10R,22aR)-5-tert-butyl-N-[(1R,2S)-2-ethenyl-1-{[(1-methylcyclopropyl)sulfonyl]carbamoyl}cyclopropyl]-17-[2-(morpholin-4-yl)ethoxy]-3,6-dioxo-14-(propan-2-yl)-1,1a,3,4,5,6,9,10,18,19,20,21,22,22a-tetradecahydro-8H-7,10-methanocyclopropa[18,19][1,10,3,6]dioxadiazacyclononadecino[11,12-b]quinoline-8-carboxamide]
Ki [1]: 6.8 nM | Ki [2, 3]: 0.39 nM

C=C[C@@H]1C[C@]1(NC(=O)[C@@H]1C[C@@H]2CN1C(=O)[C@H](C(C)(C)C)NC(=O)O[C@@H]1C[C@H]1CCCCCc1c(nc3ccccc3c1OCCc1cccnc1)O2)C(=O)NS(=O)(=O)C1(C)CC1 [Example 218, (1aR,5S,8S,10R,22aR)-5-tert-butyl-N-[(1R,2S)-2-ethenyl-1-{[(1-methylcyclopropyl)sulfonyl]carbamoyl}cyclopropyl]-3,6-dioxo-17-[2-(pyridin-3-yl)ethoxy]-1,1a,3,4,5,6,9,10,18,19,20,21,22,22a-tetradecahydro-8H-7,10-methanocyclopropa[18,19][1,10,3,6] dioxadiazacyclononadecino[11,12-b]quinoline-8-carboxamide]
Ki [1]: 2.6 nM | Ki [2, 3]: 0.035 nM

C=C[C@@H]1C[C@]1(NC(=O)[C@@H]1C[C@@H]2CN1C(=O)[C@H](C(C)(C)C)NC(=O)O[C@@H]1C[C@H]1CCCCCc1c(nc3ccccc3c1OCCCN1CCCC1)O2)C(=O)NS(=O)(=O)C1(C)CC1 [Example 117, (1aR,5S,8S,10R,22aR)-5-tert-butyl-N-[(1R,2S)-2-ethenyl-1-{[(1-methylcyclopropyl)sulfonyl]carbamoyl}cyclopropyl]-3,6-dioxo-17-[3-(pyrrolidin-1-yl)propoxy]-1,1a,3,4,5,6,9,10,18,19,20,21,22,22a-tetradeca hydro-8H-7,10-methano cyclopropa[18,19][1,10,3,6] dioxadiazacyclononadecino [11,12-b]quinoline-8-carboxamide]
Ki [1]: 0.93 nM | Ki [2, 3]: 0.08 nM

C=C[C@@H]1C[C@]1(NC(=O)[C@@H]1C[C@@H]2CN1C(=O)[C@H](C(C)(C)C)NC(=O)O[C@@H]1C[C@H]1CCCCCc1c(nc3ccccc3c1OCCCNCCc1cccc3ccccc13)O2)C(=O)NS(=O)(=O)C1(C)CC1 [Example 189, (1aR,5S,8S,10R,22aR)-5-tert-butyl-N-[(1R,2S)-2-ethenyl-1-{[(1-methylcyclopropyl)sulfonyl]carbamoyl}cyclopropyl]-17-(3-{[2-(naphthalen-1-yl)ethyl]amino}propoxy)-3,6-dioxo-1,1a,3,4,5,6,9,10,18,19,20, 21,22,22a-tetradecahydro-8H-7,10-methanocyclopropa[18,19][1,10,3,6] dioxadiazacyclononadecino[11,12-b] quinoline-8-carboxamide]
Ki [1]: 3.4 nM | Ki [2, 3]: 0.081 nM

C=C[C@@H]1C[C@]1(NC(=O)[C@@H]1C[C@@H]2CN1C(=O)[C@H](C1CCCCC1)NC(=O)O[C@@H]1C[C@H]1CCCCCc1c(nc3ccccc3c1OCCCSc1nncn1C)O2)C(=O)NS(=O)(=O)C1(C)CC1 [Example 171, (1aR,5S,8S,10R,22aR)-5-cyclohexyl-N-[(1R,2S)-2-ethenyl-1-{[(1-methylcyclopropyl)sulfonyl]carbamoyl}cyclopropyl]-17-{3-[(4-methyl-4H-1,2,4-triazol-3-yl)sulfanyl]propoxy}-3,6-dioxo-1,1a,3,4,5,6,9,10, 18,19,20,21,22,22a-tetradecahydro-8H-7,10-methanocyclopropa[18,19][1,10,3,6] dioxadiazacyclononadecino[11,12-b] quinoline-8-carboxamide]
Ki [1]: 2 nM | Ki [2, 3]: 0.099 nM

C=C[C@@H]1C[C@]1(NC(=O)[C@@H]1C[C@@H]2CN1C(=O)[C@H](C(C)(C)C)NC(=O)O[C@@H]1C[C@H]1CCCCCc1c(nc3ccccc3c1OCCc1ccccn1)O2)C(=O)NS(=O)(=O)C1(C)CC1 [Example 217, (1aR,5S,8S,10R,22aR)-5-tert-butyl-N-[(1R,2S)-2-ethenyl-1-{[(1-methylcyclopropyl)sulfonyl]carbamoyl}cyclopropyl]-3,6-dioxo-17-[2-(pyridin-2-yl)ethoxy]-1,1a,3,4,5,6,9,10,18,19,20,21,22,22a-tetradecahydro-8H-7,10-methanocyclopropa[18,19][1,10,3,6] dioxadiazacyclononadecino[11,12-b]quinoline-8-carboxamide]
Ki [1]: 7.1 nM | Ki [2, 3]: 0.27 nM
